Data published in patent US10238631B2, “Sesquiterpene derivatives and their use in inflammation or cancer treatment” (Academia Sinica, priority 2014, dated 2019).
Where two headings read alike, the source gives them in different places.

Experiments:
[1] = system: KATO III stomach cancer cell line; assay: MTT cell viability assay, KATO III; type: cell-based; details: Homo sapiens, 24 h
Experimental: (§1) Normal or cancer cells (2×10^3 to 1×10^4 cells/well) were seeded in 96-well plate for overnight and treated with different compounds for 24 h to 72 h. Cells growth were determined by MTT-based colorimetric assays according to. Viability of the test cells treated with vehicle (0.5% DMSO) only was defined as 100% viable. Survival of cells after treatment with DETDs was calculated using the following formula: viable cell number (%)=OD570 (treated cell culture)/OD570 (vehicle control)×100.
(§2) Based on toxicity results of DET and DETDs on different breast cancer and melanoma cell lines, we selected DETD-6, -32, -35 and -39, under the consideration of structure activity relationship for evaluating their suppression effect against other cancer types of cell line with indicated tumor origin in Table 5. […] The cells were treated with compounds for 24 h and then subjected to MTT assays.

[2] = system: Melanocyte (Normal cells); assay: MTT cell viability assay, normal melanocytes; type: cell-based, human; details: 24 h; for IC50: Homo sapiens, Melanocyte
Summary of the method: (§3)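 MTT readout at OD570, normalised to 0.5% DMSO vehicle-treated cells set as 100% viable. Compound exposure lasted 24 h to 72 h after overnight seeding of 2×10^3 to 1×10^4 cells/well.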

[3] = system: PC3 (Prostate); assay: MTT cell viability assay, PC3; type: cell-based; details: 24 h
Experimental: as §1, §2

[4] = system: DMBA/TPA-induced skin papillomas accelerated by PLX4032; details: DMBA/TPA + PLX4032 20 mg/kg, with DET or DETD-35 10 mg/kg i.p. twice per week
Experimental: Dorsal skin of six weeks old female FVB/N mice were shaved and treated with topical application of DMBA (25 μg in 100 μL acetone). One week after DMBA treatment, the same skin area were treated topically twice weekly with 12-O-tetradecanoylphorbol-13-acetate (TPA) (4 μg in 100 μL acetone). The area was regularly shaved and tumor formation was assessed twice weekly, and tumors were defined as raised lesions of a minimum diameter of 1 mm.

[5] = system: HTB-68 (NRAS mutation); assay: MTT cell viability assay, HTB-68 melanoma; type: cell-based, human; details: 24 h
Summary of the method: as §3

[6] = system: TS/A (ER+, Her2−) murine mammary cancer cells; assay: MTT cell viability assay, TS/A cells; type: cell-based; details: Mus musculus
Summary of the method: (§4)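 MTT readout at OD570; % viable = treated/vehicle ×100, vehicle (0.5% DMSO) set as 100%. Seeding 2×10^3–1×10^4 cells/well overnight, compound exposure 24 h to 72 h.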

[7] = system: MCF-7 (ER+, Her2−) human breast cancer cells; assay: MTT cell viability assay, MCF-7 cells; type: cell-based
Summary of the method: as §4

[8] = system: PC6 lung cancer cell line; assay: MTT cell viability assay, PC6; type: cell-based; details: 24 h
Experimental: as §1, §2

[9] = system: MDA-MB-231 cell migration; assay: Boyden chamber migration assay; type: cell-based, human; details: 24 h; for reduction of cell migration vs vehicle control: higher concentrations (DET 4 μM, DETD-35 2.5 μM, PTX 4 μM); for suppression of cell migration vs vehicle control: lower concentrations (DET 2.5 μM, DETD-35 1.25 μM, PTX 2.5 μM)
Experimental: (§5) To test the anti-migratory and anti-invasive effect of DET. DETD-35 and PTX. Boyden chambers assay was carried out. The lower well of the chamber (6.5 mm diameter, […]; Costar. Cambridge, Mass., USA) was added 10% fetal bovine serum (FBS) as a chemoattractant and filled with DMEM culture medium containing vehicle (DMSO, 0.05%), DET (2.5 and 4 μM). DETD-35 (1.25 and 2.5 μM), or PTX (2.5 and 4 μM). MDA-MB-231 cells were placed into the upper chamber (5×10^4 cells per insert) with the medium containing 0.1% FBS. After 24 h incubation at 37° C. in a 5% CO2 atmosphere, non-migrating cells were scraped from the upper surface of the membrane using a cotton swab, and the migrated cells remaining in the well were fixed and stained with DAPI solution (4,6-diamidino-2-phenylindole, 1 μg/ml). The migrating cells were counted in three fields at 20× original magnifications by inverted fluorescence microscopy. To test the anti-invasive effect of the compounds, 8-μm filters were pre-coating with Matrigel (30 μg per filter) and incubated at 37° C. for 2 h, then followed the protocol of migration assay descried about.

[10] = system: MeWo (No NRAS or BRAF mutation); assay: MTT cell viability assay, MeWo melanoma; type: cell-based, human; details: 24 h
Summary of the method: as §3

[11] = system: A375 human melanoma tumor; assay: A375 melanoma xenograft model in NOD/SCID mice; type: in vivo, mouse; details: 20 mg/kg i.p.; PLX4032 every day, DET and DETD-35 every two days
Experimental: A375 and A375-R melanoma cells (3×10^6) were injected subcutaneously to the flanks of the six weeks old NOD/SCID mice. One week after the inoculation, the mice were randomized into treated groups (n=8 per group) and the treatments were started. Body weight and tumor volume of the mice were recorded every three days using formula a×b^2×0.5, where a and b represented the larger and smaller tumor diameters.
We used A375 human melanoma xenograft model to evaluate the in vivo bioefficacy of DET. DETD-35, PLX4032 and compound drug combination. […] For single compound or drug treatment group, PLX4032 was administered i.p. every day and DET and DETD-35 were administered i.p. every two days. For combination treatment, PLX4032 was administered every two days while DET and DETD-35 were administered every four days. […] Compound-drug combinational treatments were carried out with alternative administration of DET (20 mg/kg) or DETD-35 (20 mg/kg) and PLX4032 (20 mg/kg) by which DET or DETD-35 and PLX4032 treatment frequency were only half of the single compound or drug administration alone.

[12] = system: B16-F10 (NRAS mutation); assay: MTT cell viability assay, B16-F10 melanoma; type: cell-based; details: Mus musculus, B16-F10, 24 h
Summary of the method: as §3

[13] = system: M10 normal mammary epithelial cells; assay: MTT cell viability assay, M10 normal cells; type: cell-based, human; details: 24 h; for IC50: Homo sapiens, Epithelial cell
Summary of the method: as §4

[14] = system: NES-SA uterus cancer cell line; assay: MTT cell viability assay, NES-SA; type: cell-based; details: 24 h
Experimental: as §1, §2

[15] = system: SK-N-MC neuroepithelioma line; assay: MTT cell viability assay, SK-N-MC; type: cell-based; details: Homo sapiens, 24 h
Experimental: as §1, §2

[16] = system: U937 lymphoma line; assay: MTT cell viability assay, U937; type: cell-based; details: Homo sapiens, U-937, 24 h
Experimental: as §1, §2

[17] = system: MDA-MB-231 cell invasion; assay: Boyden chamber (Matrigel) invasion assay; type: cell-based, human; details: 24 h
Experimental: as §5

[18] = system: HCT-116 colon cancer cell line; assay: MTT cell viability assay, HCT-116; type: cell-based; details: Homo sapiens, 24 h
Experimental: as §1, §2

[19] = 24 h, read-out: IC50 on cell viability, TS/A (ER+, Her2−)
[20] = Table 5, 24 h, read-out: IC50 viability TS/A (mouse) (Breast)
[21] = MCF7, 24 h, read-out: IC50 on cell viability, MCF-7 (ER+, Her2−)
[22] = MCF7, Table 5, 24 h, read-out: IC50 viability MCF-7 (Breast)
[23] = 24 h, read-out: IC50 on cell viability, B16-F10 (NRAS mutation)
[24] = Table 5, 24 h, read-out: IC50 viability B16-F10 (mouse) (Skin)

C=C(C)C(=O)O[C@H]1CC2=C[C@@H](C/C(C)=C/[C@H]3OC(=O)C(=C)[C@H]13)OC2=O [DET, deoxyelephantopin, reference compound]
IC50 [1]: 1470 nM | IC50 [2]: > 10000 nM | IC50 [3]: 12800 nM | papillomas size in average [4]: 26.3 mm^3 | total papillomas number [4]: 11.7 | IC50 [5]: > 10000 nM | IC50 ([5]; Homo sapiens): > 10000 nM | IC50 [6, 19]: 2300 nM | IC50 [6, 20]: 2600 nM | IC50 [7, 21]: 5000 nM | IC50 [7, 22]: 5000 nM | IC50 [8]: 400 nM | reduction of cell migration vs vehicle control [9]: 77% | suppression of cell migration vs vehicle control [9]: 16% | IC50 [10]: > 10000 nM | IC50 ([10]; Homo sapiens, MeWo): > 10000 nM | reduction of tumor mass vs tumor control [11]: 47.5% | IC50 [12, 23]: ~6000 nM | IC50 [12, 24]: 6000 nM | IC50 [13]: > 7500 nM | IC50 [14]: 900 nM | IC50 [15]: 510 nM | IC50 [16]: 480 nM | inhibition of cell invasion ([17]; higher concentrations (DET 4 μM, DETD-35 2.5 μM, PTX 4 μM)): 76% | inhibition of cell invasion ([17]; lower concentrations (DET 2.5 μM, DETD-35 1.25 μM, PTX 2.5 μM)): 57% | IC50 [18]: 280 nM

C=C1C(=O)O[C@H]2CC3=C[C@@H](C/C(C)=C/[C@@H](OC(=O)Cc4cccc5ccccc45)[C@H]12)OC3=O [DETD-35]
IC50 [1]: 650 nM | IC50 on cell viability, Melanocyte (Normal cells) [2]: no detected toxicity | IC50 [2]: > 10000 nM | IC50 [3]: 5500 nM | papillomas size in average [4]: 8.9 mm^3 | total papillomas number [4]: 4.8 | IC50 ([5]; Homo sapiens): 3900 nM | IC50 [6, 19]: 1700 nM | IC50 [6, 20]: 1700 nM | IC50 [7, 21]: 3200 nM | IC50 [7, 22]: 3900 nM | IC50 [8]: 340 nM | reduction of cell migration vs vehicle control [9]: 84% | suppression of cell migration vs vehicle control [9]: 10% | IC50 ([10]; Homo sapiens, MeWo): 6000 nM | reduction of tumor mass vs tumor control [11]: 70.5% | IC50 [12, 23]: 2700 nM | IC50 [12, 24]: 2700 nM | IC50 on cell viability, M10 (normal) [13]: no detected toxicity | IC50 [13]: > 7500 nM | IC50 [14]: 340 nM | IC50 [15]: 260 nM | IC50 [16]: 180 nM | inhibition at 2.5 µM ([17]; Homo sapiens, MDA-MB-231, higher concentrations (DET 4 μM, DETD-35 2.5 μM, PTX 4 μM)): 80% | inhibition at 1.25 µM ([17]; Homo sapiens, MDA-MB-231, lower concentrations (DET 2.5 μM, DETD-35 1.25 μM, PTX 2.5 μM)): 64.6% | IC50 [18]: 140 nM
